From ChEMBL document CHEMBL3352646, “New imidazo[1,2-b]pyrazoles as anticancer agents: synthesis, biological evaluation and structure activity relationship analysis” (Eur J Med Chem, 2014)

Legend:
A549 = assay: Anticancer activity human A549 cells assessed as growth inhibition by MTT colorimetric assay; type: functional, cell-based
[1] = Anticancer activity human Hs683 cells assessed as growth inhibition by MTT colorimetric assay; type: functional, cell-based; details: Hs 683
MCF7 = assay: Anticancer activity human MCF7 cells assessed as growth inhibition by MTT colorimetric assay; type: functional, cell-based
SK-MEL-28 = assay: Anticancer activity human SK-MEL-28 cells assessed as growth inhibition by MTT colorimetric assay; type: functional, cell-based
[2] = Anticancer activity human U373 cells assessed as growth inhibition by MTT colorimetric assay; type: functional, cell-based, U-373MG ATCC; details: U373 MG
[3] = Anticancer activity mouse B16F10 cells assessed as growth inhibition by MTT colorimetric assay; type: functional, cell-based; details: B16-F10
NHDF = assay: Cytotoxicity against human NHDF cells by MTT colorimetric assay; type: cell-based
[4] = Cytotoxicity against human NHLF cells by MTT colorimetric assay; type: cell-based

Row | Structure (SMILES) | IC50 (A549) | IC50 [1] | IC50 (MCF7) | IC50 (SK-MEL-28) | IC50 [2] | IC50 [3] | Activity (NHDF) | Activity [4]
1 | COc1ccc(-c2c(-c3ccc(C(F)(F)F)cc3)n3nc(-c4ccccc4)cc3n2C)cc1 | > 100 µM | > 100 µM | > 100 µM | > 100 µM | > 100 µM |  |  | 
2 | COc1ccc(-c2c(-c3ccc(C)cc3)n3nc(-c4ccccc4)c(CN4CCCCC4)c3n2C)cc1 | 51 µM | 37 µM | 72 µM | 39 µM | 33 µM | 25 µM |  | 
3 | COc1ccc(-c2c(-c3ccncc3)n3nc(-c4ccccc4)c(CN4CCOCC4)c3n2C)cc1 | 5 µM | 3 µM | 16 µM | 5 µM | 12 µM | 2 µM |  | 
4 | COc1ccc(-c2c(-c3ccc(C)cc3)n3nc(-c4ccccc4)c(CN4CCN(C)CC4)c3n2C)cc1 | 20 µM | 18 µM | 18 µM | 21 µM | 19 µM | 12 µM |  | 
5 | COc1ccc(-c2c(-c3ccccc3C#N)n3nc(-c4ccccc4)cc3n2C)cc1 | 22 µM | 26 µM | 35 µM | 16 µM | 13 µM |  |  | 
6 | COc1ccc(-c2c(-c3ccc(C)cc3)n3nc(-c4ccccc4)c(CN4CCOCC4)c3n2C)cc1 | 37 µM | 48 µM | 45 µM | > 100 µM | 30 µM | 46 µM |  | 
7 | COc1ccc(-c2cn3nc(-c4ccccc4)c(C(=O)N4CCOCC4)c3n2C)cc1 | > 100 µM | > 100 µM | > 100 µM | > 100 µM | > 100 µM | 76 µM |  | 
8 | COc1ccc(-c2c(-c3ccc(C(F)(F)F)cc3)n3nc(-c4ccccc4)c(CN4CCN(C)CC4)c3n2C)cc1 | 20 µM | 21 µM | 20 µM | 19 µM | 24 µM | 23 µM |  | 
9 | COc1ccc(-c2c(-c3ccc(OC)cc3)n3nc(-c4ccccc4)cc3n2C)cc1 | > 100 µM | > 100 µM | > 100 µM | > 100 µM | 96 µM |  |  | 
10 | COc1ccc(-c2c(-c3cccc(C)c3)n3nc(-c4ccccc4)cc3n2C)cc1 | 31 µM | 59 µM | 75 µM | 29 µM | 46 µM |  |  | 
11 | COc1ccc(-c2c(-c3ccc(C(F)(F)F)cc3)n3nc(-c4ccccc4)c(CN4CCOCC4)c3n2C)cc1 | 1.3 µM | 0.9 µM | 1.9 µM | 2.3 µM | 0.8 µM | 2.1 µM | Non-toxic | Non-toxic
12 | COc1ccc(-c2c(-c3ccc(C(F)(F)F)cc3)n(C)c3c(CN4CCOCC4)c(-c4ccccc4)nn23)cc1 | 37 µM | 62 µM | 59 µM | 28 µM | 20 µM | 38 µM |  | 
13 | COc1ccc(-c2cn3nc(-c4ccccc4)c(CN4CCOCC4)c3n2C)cc1 | 9 µM | 5 µM | 5 µM | 14 µM | 4 µM | 5 µM |  | 
14 | COc1ccc(-c2cn3nc(-c4ccccc4)c(C(=O)N4CCN(C)CC4)c3n2C)cc1 | > 100 µM | > 100 µM | 88 µM | > 100 µM | > 100 µM | 74 µM |  | 
